Test results reported in patent US4232121A, “Process for selecting methine dyes which inhibit cell growth” (Eastman Kodak Company, priority 1978, dated 1980).
Read-outs that look alike come from different tables or passages of the source.

How the values were obtained:
[1] = tested on: Bacillus pumilus strain K-1; experiment: Inhibition of bacterial growth, filter paper on inoculated agar plates; type: cell-based; conditions: for zone of inhibition at 1000 µM / zone of inhibition at 100 µM: Bacillus pumilus, read-out: Diameter of Inhibition
Description: Nutrient broth was prepared by mixing 8 grams of BACTO dehydrated nutrient broth per liter of distilled water. […] Samples of the nutrient broth were then inoculated with Bacillus pumilus strain K-1 culture. […]
Nutrient agar was prepared by mixing 23 grams of BACTO nutrient agar per liter of distilled water. The nutrient agar was sterilized in the same way as the nutrient broth. After it has cooled to about 45° C. 250 ml of the nutrient agar solution was aeseptically inoculated with 5 ml of the Bacillus pumilus, K-1 culture prepared in (A), above. Plates of the inoculated nutrient agar were then poured and allowed to harden.
[…] To minimize possible photocatalyzed reactions of the dyes, all preparations were performed under yellow lights and all incubations were performed in the dark.
Schleider and Schuell #740-E filter paper (12.7 mm diameter) was dipped in the dye solution, touched to the side of the beaker to removed excess dye, and placed in the center of the inoculated agar plates (prepared in (B) above). […] The plates were then examined to determine if bacterial growth had been affected by the dye-containing filter paper. […]
Control plates were prepared in which the filter paper contained methanol or a 0.2 molar aqueous solution of phenol. […]

[2] = not told
[3] = tested on: Bacillus pumilus (K-1)
Description: This can be accomplished by contacting a given concentration of the dye with the cells, removing the cells from the dye solution and then comparing the optical density (at λmax) of the remaining dye solution with a control containing the original concentration of the dye. The percentage decrease in optical density indicates the percentage of dye which has been bound to the cells.
The culture was collected by centrifugation at 5,000×g. for 10 minutes, and the resultant pellet was washed several times in cold 0.05 M potassium phosphate buffer, pH 7.0. The pellet was resuspended in the buffer solution to a final optical density of 1.0 at 620 nm as measured with a Bausch and Lomb Spectronic 20.
One-tenth ml of dye solution (1 mg/ml in methanol) was added to a tube containing 5 ml of cell suspension described above and a control tube containing 0.05 M potassium phosphate buffer, pH 7.0. All tubes were well agitated using a Vari-Whirl Mixer (Will Scientific Co.) and then centrifuged at 10,000×g. for 10 minutes.
The percent binding of dye to the cells for each dye, was determined by comparison of the density at λmax of the control supernatant sample with the density at λmax of the supernatant of the cell sample.

[4] = K1, 72 h, Tables V and VI, 10^-3 molar, three days
[5] = Tables V and VI, 10^-3 molar, three days

CCc1ccc2c(c1)N(CC)C(=CC=Cc1oc3ccc(CC)cc3[n+]1CC)O2 [7,5,5'-diethyl]
zone of inhibition at 1000 µM [1, 4]: 23 mm

CCN1C(=CC=Cc2oc3ccc(S(=O)(=O)[O-])cc3[n+]2CC)Oc2ccc(S(=O)(=O)O)cc21 [7,5,5'-disulfo]
Diameter of Inhibition [1, 5]: None
ER [2]: -1.27

CCN1C(=CC=Cc2sc3cc(Br)ccc3[n+]2CC)Sc2cc(Br)ccc21 [17,6,6'-dibromo]
Diameter of Inhibition [1, 5]: None
ER [2]: -.88

CCN1C(=CC=Cc2sc3cc(F)ccc3[n+]2CC)Sc2cc(F)ccc21 [17,6,6'-difluoro]
zone of inhibition at 1000 µM [1, 4]: 18 mm
ER [2]: -1.06

CCN1C(=CC=Cc2oc3ccc(OC(C)=O)cc3[n+]2CC)Oc2ccc(OC(C)=O)cc21 [Dye 10]
Activity Rating [1]: 80
zone of inhibition at 1000 µM ([1]; K1, Table IX, 10^-3 M): 28.5 mm
% Bound [3]: 68.8%
ER [2]: -1.17
reduction potential (ER) [2]: -1.17 volts

CCN1C(=CC=Cc2oc3ccc(NC(C)=O)cc3[n+]2CC)Oc2ccc(NC(C)=O)cc21 [7,5,5'-acetamido]
Diameter of Inhibition [1, 5]: None

CCN1C(=CC=Cc2sc3cc(C)ccc3[n+]2CC)Sc2cc(C)ccc21 [17,6,6'-dimethyl]
zone of inhibition at 1000 µM [1, 4]: 15 mm

CCN1C(=CC=Cc2sc3cc(O)ccc3[n+]2CC)Sc2cc(O)ccc21 [17,6,6'-dihydroxy]
zone of inhibition at 1000 µM [1, 4]: 15.5 mm

CCN1C(=CC=Cc2oc3ccc(S(=O)(=O)O)cc3[n+]2CC)Oc2ccc(S(=O)(=O)[O-])cc21 [Dye 6]
Activity Rating [1]: 0
Diameter of Inhibition ([1]; Table IX, 10^-3 M): None
% Bound [3]: 3.3%
reduction potential (ER) [2]: -1.27 volts

CCN1C(=CC=Cc2oc3cccc(OC(C)=O)c3[n+]2CC)Oc2cccc(OC(C)=O)c21 [7,4,4'-diacetoxy]
zone of inhibition at 1000 µM [1, 4]: 15 mm

CCN1C(=CC=Cc2sc3cc(I)ccc3[n+]2CC)Sc2cc(I)ccc21 [17, 6.6'-diiodo]
Diameter of Inhibition [1, 5]: None
ER [2]: -.84

CCN1C(=CC=Cc2oc3ccc(OC)cc3[n+]2CC)Oc2ccc(OC)cc21 [7,5,5'-dimethoxy]
zone of inhibition at 1000 µM [1, 4]: 23.5 mm

CCN1C(=CC=Cc2sc3cccc(OC)c3[n+]2CC)Sc2cccc(OC)c21 [17,4,4'-dimethoxy]
zone of inhibition at 1000 µM [1, 4]: 17.5 mm

CCN1C(=CC=Cc2oc3ccc(Cl)cc3[n+]2CC)Oc2ccc(Cl)cc21 [7,5,5'-dichloro]
zone of inhibition at 1000 µM [1, 4]: 26.5 mm

CCN1C(=CC=Cc2oc3cc(Cl)ccc3[n+]2CC)Oc2cc(Cl)ccc21 [Dye 9]
Activity Rating [1]: 71
zone of inhibition at 1000 µM ([1]; K1, Table IX, 10^-3 M): 30.5 mm
% Bound [3]: 95.1%
ER [2]: -1.18
reduction potential (ER) [2]: -1.18 volts

CCN1C(=CC=Cc2sc3cc(NC(C)=O)ccc3[n+]2CC)Sc2cc(NC(C)=O)ccc21 [17,6,6'-diacetamido]
Diameter of Inhibition [1, 5]: None

CCN1C(=CC=Cc2oc3ccc(Br)cc3[n+]2CC)Oc2ccc(Br)cc21 [7,5,5'-dibromo]
zone of inhibition at 1000 µM [1, 4]: 22.5 mm

CCN1C(=CC=CC=Cc2sc3ccccc3[n+]2CC)Sc2ccccc21 [Dye 22]
zone of inhibition at 100 µM ([1]; K1, Table II, 10^-4 molar, 26° C., forty-eight hours): 15 mm
zone of inhibition at 100 µM ([1]; K1, Table IX, 10^-4 M): 15 mm
Activity Rating ([1]; Table IX, 10^-4 M, relative to phenol concentration giving equal diameter, Dye 7 = 100): 11
% Bound [3]: 98.4%
reduction potential (ER) [2]: -0.83 volts

CCN1C(=CC=Cc2oc3ccc(O)cc3[n+]2CC)Oc2ccc(O)cc21 [7,5,5'-dihydroxy]
zone of inhibition at 1000 µM [1, 4]: 14 mm

CCN1C(=CC=Cc2sc3ccccc3[n+]2CC)Sc2ccccc21 [17, ClO4^-]
zone of inhibition at 1000 µM ([1]; K1, 72 h, Table IV, 10^-3 molar, three days, differing anions): 19 mm

CCN1C(=CC=Cc2sc3ccc(Br)cc3[n+]2CC)Sc2ccc(Br)cc21 [17,5,5'-dibromo]
zone of inhibition at 1000 µM [1, 4]: 13.5 mm

CN1C(=CC=Cc2oc3ccc(C#N)cc3[n+]2C)Oc2ccc(C#N)cc21 [7,5,5'-dicyano-N,N'-methyl]
Diameter of Inhibition [1, 5]: None
ER [2]: -.99

CCN1C(=CC=Cc2sc3ccc(C)cc3[n+]2CC)Sc2ccc(C)cc21 [17,5,5'-dimethyl]
zone of inhibition at 1000 µM [1, 4]: 14 mm

CCN1C(=CC=Cc2oc3ccc(-c4ccccc4)cc3[n+]2CC)Oc2ccc(-c3ccccc3)cc21 [7,5,5'-diphenyl]
Diameter of Inhibition [1, 5]: None
